Test results reported in US9120762B2, “Salts of bicyclo-substituted pyrazolon azo derivatives, preparation method and use thereof” (Jiangsu Hengrui Medicine Co., Ltd., priority 2009, dated 2015).

Columns and labels:
[1] = Hygroscopicity assay, standing 48 hours at 25° C., humidity 79%; assay type: physicochemical; details: for Percentage of weight gain / hygroscopicity: 48 hours, 25° C., humidity 79%
Experimental: The hygroscopicity test of the compounds of the present disclosure after standing for 48 hours
1. The arid glass weighing bottle with a tap (external diameter is 50 mm, the height is 15 mm) was placed at 25° C.±1° C. suitably in a thermostatic drier (saturated ammonium sulfate solution was laid in the lower part, humidity was 79%) the day before the assay, precise weight was measured as (m1);
2. The above weighing bottle was covered with the compounds of the invention (about 1 g), and the thickness of the compounds were generally 1 mm, precise weight was measured as (m2);
3. The mouth of the weighing bottle was kept open and placed with the tap in the above conditions with constant temperature and humidity for 48 hours;
4. Put the tap back on the bottle, precise weight was measured as (m3)
The degree of hygroscopicity was defined as follows: […]
Deliquesce: turning into liquid by absorbing enough moisture.
High hygroscopicity: the percentage of hygroscopicity weight gain is not less than 15%.
Hygroscopicity: the percentage of hygroscopicity weight gain is less than 15%, but not less than 2%.
Sparing hygroscopicity: the percentage of hygroscopicity weight gain is less than 2%, but not less than 0.2%.
No hygroscopicity or almost no hygroscopicity: the percentage of hygroscopicity weight gain is less than 0.2%.

[2] = Pharmacokinetics assay in rats; assay type: in vivo, SD rats
Outline: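 SD rats, half male and half female, dosed intragastrically with compound suspended at 5 mg/mL (as free acid) in 1% sodium carboxymethyl cellulose; fed 2 h post-dose. Plasma concentrations over time were measured by HPLC-UV. Parameters came from a compartmental fit, with Cmax and tmax as observed values.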

[3] = Pharmacokinetics assay in Beagle dogs; assay type: in vivo; details: for Vd/F / AUC / CL/F / half-life / MRT / Cmax / Tmax: male, beagle, dog, plasma, po; for Vd/F: read-out: Apparent Distribution Volume Vz/F; for AUC: read-out: Area Under Curve AUC; for CL/F: read-out: Clearance CL/F (converted); for half-life: read-out: Half-Life t1/2 (converted); for MRT: read-out: Mean Residence Time MRT; for Cmax: read-out: Plasma Conc. Cmax; for Tmax: read-out: Time to peak Tmax
Experimental: The pharmacokinetic behavior of the compounds of the present disclosure was studied and evaluated in Beagle dogs.
12 Healthy adult Beagles dogs, male, were purchased from Suzhou Xishan Drug Research and Development Colo., LTD. License number: SCXK (Suzhou) 2007-0005.
The test compound was diluted with 0.5% sodium carboxymethyl cellulose to 2.5 mg/mL (calculated as the free acid form) of suspension before use.
12 Healthy adult Beagles dogs, male, were divided into 4 groups. After an overnight fast, the dogs were administered intragastrically at a dose of 5.0 mg/kg (calculated as the free acid form), at a volume of 2 mL/kg.
Blood samples (1.2 mL) were taken from vein of forelegs at pre administration and at 0.25, 0.5, 1.0, 1.5, 2.0, 3.0, 5.0, 6.0, 8.0, 12.0, 14.0, 24.0 and 48.0 hours post administration, which were stored in heparinized tubes and centrifuged for 10 minutes at 3,500 rpm. The plasma samples were stored at −20° C. until analysis. The Beagles dogs were fed 2 hours after administration.
50 μL of Beagles dog plasma, obtained at various time points after administration, 20 μL of internal standard solution and 150 μL of methanol was added to result in protein precipitation. Then the mixture was mixed for 1 minute using a vortexer and centrifuged for 5 minutes at 11,000 rpm. 50 μL of the supernatant was analyzed by HPLC-UV.
The compartmental model of pharmacokinetics was fitted for the test compounds and the major pharmacokinetic parameters were calculated in which Cmax and tmax were the actually measured values.

[4] = 5 mg/kg, intragastric, 5 mg/kg (as free acid)
[5] = SD rats, intragastric, 50 mg/Kg (as free acid), 50 mg/kg
[6] = intragastric, 5 mg/kg (as free acid), 5 mg/kg

Structure (SMILES) | Percentage of weight gain [1] [%] | hygroscopicity [1] | Vd/F [3, 4] [L/kg] | AUC [3, 4] [ng·h/mL] | CL/F [3, 4] [mL/min/kg] | half-life [3, 4] [h] | MRT [3, 4] [h] | Cmax [3, 4] [ng/mL] | Tmax [3, 4] [h] | Area Under Curve AUC [2, 5] [ng·h/mL] | Clearance CL/F [2, 5] [mL/min/kg] | Half-Life t½ [2, 5] [h] | Plasma Conc. Cmax [2, 5] [ng/mL] | Time to peak Tmax [2, 5] [h] | other results
CC1=NN(c2ccc3c(c2)CCCC3)C(=O)/C1=N\Nc1cccc(-c2ccc(C(=O)O)o2)c1O.NCCO.NCCO [Example 7, (Z)-5-(2-hydroxy-3-{N′-[3-methyl-5-oxo-1-(5,6,7,8-tetrahydro-naphthalen-2-yl)-1,5-dihydro-pyrazol-4-ylidene]-hydrazino}-phenyl)-furan-2-carboxylic acid bis-(ethanolamine)] | 1.2 | Sparing hygroscopicity (the percentage of hygroscopicity weight gain is less than 2%, but not less than 0.2%) | 5.72 | 12200 | 8.3 | 8.24 | 13.3 | 985 | 1.2 | – | – | – | – | – | hygroscopicity, in words ([1]; comparing to the other salts): less hydroscopic; Vd/F ([2]; both sexes, SD, rat, plasma, po, 50 mg/kg, SD rats, intragastric, 50 mg/Kg (as free acid), read-out: Apparent Distribution Volume Vz/F): 2.48 ± 0.92 L/kg; AUC ([2]; both sexes, SD, rat, plasma, po, 50 mg/kg, SD rats, intragastric, 50 mg/Kg (as free acid), read-out: Area Under Curve AUC): 469000 ± 274000 ng·h/mL; CL/F ([2]; both sexes, SD, rat, plasma, po, 50 mg/kg, SD rats, intragastric, 50 mg/Kg (as free acid), read-out: Clearance CL/F (converted)): 2.92 mL/min/kg; half-life ([2]; both sexes, SD, rat, plasma, po, 50 mg/kg, SD rats, intragastric, 50 mg/Kg (as free acid), read-out: Half-Life t½ (converted)): 13.9 ± 6.07 h; MRT ([2]; both sexes, SD, rat, plasma, po, 50 mg/kg, SD rats, intragastric, 50 mg/Kg (as free acid), read-out: Mean Residence Time MRT): 13.3 ± 5.12 h; Cmax ([2]; both sexes, SD, rat, plasma, po, 50 mg/kg, SD rats, intragastric, 50 mg/Kg (as free acid), read-out: Plasma Conc. Cmax): 74100 ± 34500 ng/mL; Tmax ([2]; both sexes, SD, rat, plasma, po, 50 mg/kg, SD rats, intragastric, 50 mg/Kg (as free acid), read-out: Time to peak Tmax): 1.75 ± 0.5 h; pharmacokinetics and bioavailability, in words ([2]; rats, comparing to the free acid): good pharmacokinetic characteristics; pharmacokinetics, in words ([3]; among the four salts): obviously superior in pharmacokinetics
CC1=NN(c2ccc3c(c2)CCCC3)C(=O)/C1=N\Nc1cccc(-c2ccc(C(=O)O)o2)c1O [Example 8, (Z)-5-(2-hydroxy-3-{N′-[3-methyl-5-oxo-1-(5,6,7,8-tetrahydro-naphthalen-2-yl)-1,5-dihydro-pyrazol-4-ylidene]-hydrazino}-phenyl)-furan-2-carboxylic acid bis-(choline)] | 13.9 | Hygroscopicity (the percentage of hygroscopicity weight gain is less than 15%, but not less than 2%) | – | – | – | – | – | – | – | 352000 ± 586000 | 15.4 ± 16.88 | 10.6 ± 9.02 | 36200 ± 46200 | 1.38 ± 1.11 | Area Under Curve AUC [3, 6]: 7910 ng·h/mL; Clearance CL/F [3, 6]: 14.6 mL/min/kg; Half-Life t1/2 [3, 6]: 7.67 h; Plasma Conc. Cmax [3, 6]: 600 ng/mL; Time to peak Tmax [3, 6]: 0.5 h
CC1=NN(c2ccc3c(c2)CCCC3)C(=O)/C1=N\Nc1cccc(-c2ccc(C(=O)O)o2)c1O [Example 12, (Z)-5-(2-hydroxy-3-{N′-[3-methyl-5-oxo-1-(5,6,7,8-tetrahydro-naphthalen-2-yl)-1,5-dihydro-pyrazol-4-ylidene]-hydrazino}-phenyl)-furan-2-carboxylic acid bis-(trometamol)] | 2.71 | Hygroscopicity (the percentage of hygroscopicity weight gain is less than 15%, but not less than 2%) | 4.86 | 11000 | 11 | 6.86 | 11.6 | 811 | 0.5 | 58500 ± 23800 | 16.7 ± 8.4 | 5.1 ± 2.41 | 17800 ± 10300 | 1.38 ± 1.11 | –
